Measured values reported in patent US20230301300A1, “HERBICIDAL COMPOSITIONS” (SYNGENTA CROP PROTECTION AG, priority 2020, published 2023).

Tests used:
Type in all cases: in vivo
Setaria faberi (SETFA) [1] = experiment: B3 Herbicidal Efficacy of Compounds of Formula (II), pre-emergence; settings: 312 h, application pre-emergence, after 13 days, 100=total damage, 0=no damage, read-out: percentage phytotoxicity to the plant, SETFA
Method: (§1) Seeds of a variety of test species [Ipomoea hederacea (IPOHE); Zea mays (ZEAMX); Echinochloa crus-galli (ECHCG); Setaria faberi (SETFA); Abutilon theophrasti (ABUTH); Amaranthus retroflexus (AMARE)] were sown in standard sterilised soil in pots. After cultivation for one day (pre-emergence) or after 8 days cultivation (post-emergence) under controlled conditions in a glasshouse (at 24/16° C., day/night; 14 hours light; 65% humidity), the plants were sprayed with an aqueous spray solution derived from the formulation of the technical active ingredient in acetone/water (50:50) solution containing 0.5% Tween 20 (polyoxyethelyene sorbitan monolaurate, CAS RN 9005-64-5), subsequently diluted in water, and sprayed to give the stated application rate. The test plants were then grown under controlled conditions in a glasshouse (at 24/16° C., day/night; 14 hours light; 65% humidity) and watered twice daily. After 13 days for pre and post-emergence, the test was evaluated visually for percentage phytotoxicity to the plant (where 100=total damage to plant; 0=no damage to plant).

Zea mays (ZEAMX) [2] = experiment: as above; settings: 312 h, application pre-emergence, after 13 days, 100=total damage, 0=no damage, read-out: percentage phytotoxicity to the plant, ZEAMX
Method: as §1

[3] = system: Abutilon theophrasti (ABUTH); experiment: as above; settings: 312 h, application pre-emergence, after 13 days, 100=total damage, 0=no damage, read-out: percentage phytotoxicity to the plant, ABUTH
Method: as §1

[4] = system: Amaranthus retroflexus (AMARE); experiment: as above; settings: 312 h, application pre-emergence, after 13 days, 100=total damage, 0=no damage, read-out: percentage phytotoxicity to the plant, AMARE
Method: as §1

[5] = system: Ipomoea hederacea (IPOHE); experiment: as above; settings: 312 h, application pre-emergence, after 13 days, 100=total damage, 0=no damage, read-out: percentage phytotoxicity to the plant, IPOHE
Method: as §1

[6] = system: Echinochloa crus-galli (ECHCG); experiment: as above; settings: 312 h, application pre-emergence, after 13 days, 100=total damage, 0=no damage, read-out: percentage phytotoxicity to the plant, ECHCG
Method: as §1

Setaria faberi (SETFA) [7] = experiment: B3 Herbicidal Efficacy of Compounds of Formula (II), post-emergence; settings: 312 h, application post-emergence, after 13 days, 100=total damage, 0=no damage, read-out: percentage phytotoxicity to the plant, SETFA
Method: as §1

Zea mays (ZEAMX) [8] = experiment: as above; settings: 312 h, application post-emergence, after 13 days, 100=total damage, 0=no damage, read-out: percentage phytotoxicity to the plant, ZEAMX
Method: as §1

[9] = system: Abutilon theophrasti (ABUTH); experiment: as above; settings: 312 h, application post-emergence, after 13 days, 100=total damage, 0=no damage, read-out: percentage phytotoxicity to the plant, ABUTH
Method: as §1

[10] = system: Amaranthus retroflexus (AMARE); experiment: as above; settings: 312 h, application post-emergence, after 13 days, 100=total damage, 0=no damage, read-out: percentage phytotoxicity to the plant, AMARE
Method: as §1

[11] = system: Ipomoea hederacea (IPOHE); experiment: as above; settings: 312 h, application post-emergence, after 13 days, 100=total damage, 0=no damage, read-out: percentage phytotoxicity to the plant, IPOHE
Method: as §1

[12] = system: Echinochloa crus-galli (ECHCG); experiment: as above; settings: 312 h, application post-emergence, after 13 days, 100=total damage, 0=no damage, read-out: percentage phytotoxicity to the plant, ECHCG
Method: as §1

[13] = system: Amaranthus retoflexus (AMARE); experiment: B1 Post-Emergence Efficacy - Test 1; settings: 1000 g/ha, after 13 days, five point scale
Method: (§2) Seeds of a variety of test species are sown in standard soil in pots:— Solanum nigrum (SOLNI), Amaranthus retoflexus (AMARE), Setaria faberi (SETFA), Alopecurus myosuroides (ALOMY), Echinochloa crus-galli (ECHCG), Ipomoea hederacea (IPOHE), Lolium perenne (LOLPE). After 8 days cultivation (post-emergence) under controlled conditions in a glasshouse (at 24/16° C., day/night; 14 hours light; 65% humidity), the plants are sprayed with an aqueous spray solution derived from the formulation of the technical active ingredient in acetone/water (50:50) solution containing 0.5% Tween 20 (polyoxyethylene sorbitan monolaurate, CAS RN 9005-64-5). Compounds are applied at 1000 g/ha. The test plants are then grown in a glasshouse under controlled conditions in a glasshouse (at 24/16° C., day/night; 14 hours light; 65% humidity) and watered twice daily. After 13 days, the test is evaluated for the percentage damage caused to the plant. The biological activities are assessed on a five point scale (5=80-100%; 4=60-79%; 3=40-59%; 2=20-39%; 1=0-19%). A blank value in the table is indicative that the compound was not tested on that species.

Setaria faberi (SETFA) [14] = experiment: B1 Post-Emergence Efficacy - Test 1; settings: 1000 g/ha, after 13 days, five point scale
Method: as §2

Lolium perenne (LOLPE) = experiment: B1 Post-Emergence Efficacy - Test 1; settings: 1000 g/ha, after 13 days, five point scale
Method: as §2

Solanum nigrum (SOLNI) = experiment: B1 Post-Emergence Efficacy - Test 1; settings: 1000 g/ha, after 13 days, five point scale
Method: as §2

[15] = system: Ipomoea hederacea (IPOHE); experiment: B1 Post-Emergence Efficacy - Test 1; settings: 1000 g/ha, after 13 days, five point scale
Method: as §2

[16] = system: Echinochloa crus-galli (ECHCG); experiment: B1 Post-Emergence Efficacy - Test 1; settings: 1000 g/ha, after 13 days, five point scale
Method: as §2

SMILES	pest or weed control at 250 g/ha (Setaria faberi (SETFA) [1]) [%]	plant injury at 250 g/ha (Zea mays (ZEAMX) [2]) [%]	pest or weed control at 250 g/ha [3] [%]	pest or weed control at 250 g/ha [4] [%]	pest or weed control at 250 g/ha [5] [%]	pest or weed control at 250 g/ha [6] [%]	pest or weed control at 250 g/ha (Setaria faberi (SETFA) [7]) [%]	percent crop injury (phytotoxicity to maize) at 250 g/ha (Zea mays (ZEAMX) [8]) [%]	pest or weed control at 250 g/ha [9] [%]	pest or weed control at 250 g/ha [10] [%]	pest or weed control at 250 g/ha [11] [%]	pest or weed control at 250 g/ha [12] [%]	percentage damage caused to the plant, AMARE [13]	percentage damage caused to the plant, SETFA (Setaria faberi (SETFA) [14])	percentage damage caused to the plant, LOLPE (Lolium perenne (LOLPE))	percentage damage caused to the plant, SOLNI (Solanum nigrum (SOLNI))	percentage damage caused to the plant, IPOHE [15]	percentage damage caused to the plant, ECHCG [16]
CN1C[C@H](c2cc(C(F)(F)F)n(C)n2)[C@@H](C(=O)Nc2cccc(F)c2C(C)(F)F)C1=O [Compound 2.12, (3S,4R)-N-[2-(1,1-difluoroethyl)-3-fluoro-phenyl]-1-methyl-4-[1-methyl-5-(trifluoromethyl)pyrazol-3-yl]-2-oxo-pyrrolidine-3-carboxamide]	90	90	0	0	70	90	90	80	0	0	50	90	–	–	–	–	–	–
Cc1nn(C)c(=O)c(-c2c(F)ccc(Cl)c2CCc2ccccc2)c1O [Compound 1.001, 4-(3-chloro-6-fluoro-2-phenethyl-phenyl)-5-hydroxy-2,6-dimethyl-pyridazin-3-one]	–	–	–	–	–	–	–	–	–	–	–	–	5 (5=80-100%)	5 (5=80-100%)	5 (5=80-100%)	5 (5=80-100%)	5 (5=80-100%)	5 (5=80-100%)
Cc1nn(C)c(=O)c(-c2c(F)ccc(Cl)c2CCc2ccc(C(F)(F)F)cc2)c1OC(=O)C(C)C [Compound 1.095, [5-[3-chloro-6-fluoro-2-[2-[4-(trifluoromethyl)phenyl]ethyl]phenyl]-1,3-dimethyl-6-oxo-pyridazin-4-yl] 2-methylpropanoate]	–	–	–	–	–	–	–	–	–	–	–	–	5 (5=80-100%)	–	5 (5=80-100%)	5 (5=80-100%)	5 (5=80-100%)	5 (5=80-100%)
Cc1nn(C)c(=O)c(-c2c(F)ccc(Cl)c2CCc2cccnc2)c1O [Compound 1.054, 4-[3-chloro-6-fluoro-2-[2-(3-pyridyl)ethyl]phenyl]-5-hydroxy-2,6-dimethyl-pyridazin-3-one]	–	–	–	–	–	–	–	–	–	–	–	–	5 (5=80-100%)	5 (5=80-100%)	5 (5=80-100%)	5 (5=80-100%)	5 (5=80-100%)	5 (5=80-100%)
Cc1nn(C)c(=O)c(-c2c(F)ccc(Cl)c2CCc2ccc(Cl)cc2)c1O [Compound 1.012, 4-[3-chloro-2-[2-(4-chlorophenyl)ethyl]-6-fluoro-phenyl]-5-hydroxy-2,6-dimethyl-pyridazin-3-one]	–	–	–	–	–	–	–	–	–	–	–	–	5 (5=80-100%)	5 (5=80-100%)	5 (5=80-100%)	5 (5=80-100%)	5 (5=80-100%)	5 (5=80-100%)
Cc1ccc(CCc2c(Cl)ccc(F)c2-c2c(OC(=O)C(C)C)c(C)nn(C)c2=O)cc1 [Compound 1.149, [5-[3-chloro-6-fluoro-2-[2-(p-tolyl)ethyl]phenyl]-1,3-dimethyl-6-oxo-pyridazin-4-yl] 2-methylpropanoate]	–	–	–	–	–	–	–	–	–	–	–	–	5 (5=80-100%)	5 (5=80-100%)	5 (5=80-100%)	5 (5=80-100%)	5 (5=80-100%)	5 (5=80-100%)
Cc1nn(C)c(=O)c(-c2c(F)ccc(Cl)c2CCc2ccc(C(F)(F)F)cc2)c1O [Compound 1.018, 4-[3-chloro-6-fluoro-2-[2-[4-(trifluoromethyl)phenyl]ethyl]phenyl]-5-hydroxy-2,6-dimethyl-pyridazin-3-one]	–	–	–	–	–	–	–	–	–	–	–	–	5 (5=80-100%)	5 (5=80-100%)	5 (5=80-100%)	5 (5=80-100%)	5 (5=80-100%)	5 (5=80-100%)
Cc1nn(C)c(=O)c(-c2c(F)ccc(Cl)c2/C=C/c2ccccc2)c1O [Compound 1.002, 4-[3-chloro-6-fluoro-2-[(E)-styryl]phenyl]-5-hydroxy-2,6-dimethyl-pyridazin-3-one]	–	–	–	–	–	–	–	–	–	–	–	–	4 (4=60-79%)	3 (3=40-59%)	4 (4=60-79%)	5 (5=80-100%)	5 (5=80-100%)	4 (4=60-79%)
Cc1nn(C)c(=O)c(-c2c(F)ccc(Cl)c2CCc2ccc(F)c(F)c2)c1O [Compound 1.060, 4-[3-chloro-2-[2-(3,4-difluorophenyl)ethyl]-6-fluoro-phenyl]-5-hydroxy-2,6-dimethyl-pyridazin-3-one]	–	–	–	–	–	–	–	–	–	–	–	–	5 (5=80-100%)	5 (5=80-100%)	5 (5=80-100%)	5 (5=80-100%)	5 (5=80-100%)	5 (5=80-100%)
